Literature values in patent US5691307A, “O^6 -substituted guanine compositions and methods for depleting O^6” (The United States of America as represented by the …, priority 1994, dated 1997).
“Also recorded” adds a separate entry of the source.

Tests used:
AGT = conditions: cited from earlier work
[1] = tested on: AGT activity of D341MED xenograft tumors; conditions: i.p., sc D341MED; cited from earlier work
[2] = tested on: intracranial (ic) xenografts of D341MED; conditions: athymic mice; cited from earlier work
[3] = tested on: D245MG, a human glioma xenograft; conditions: sc D245MG, cited from earlier work
prostate tumors = conditions: cited from earlier work
[4] = tested on: human colon cancer cells (HT29); conditions: HT29, in vitro; cited from earlier work
[5] = tested on: malignant glioma cells (SF767); conditions: SF767, in vitro; cited from earlier work
melanoma cells (M19-mel) = conditions: in vitro; cited from earlier work
tumor cells = conditions: cited from earlier work
[6] = athymic mice; cited from earlier work
[7] = tested on: D341MED, a human medulloblastoma xenograft; conditions: sc D341MED, cited from earlier work
human tumor xenografts = conditions: nude mice bearing human tumor xenografts; cited from earlier work

## Nc1nc(OCc2ccccc2)c2nc[nH]c2n1 [O^6 -benzylguanine]
AGT
  potency as AGT depleter: more potent
AGT; literature
  AGT depletion (shown previously): effective in depleting AGT; also recorded: dramatic and rapid depletion of cellular alkyltransferase activity
[1]
  AGT activity of the tumors: undetectable
  time to undetectable tumor AGT activity: ≤ 1 h
  time until which tumor AGT remained depleted: 36 h
[2]
  survival, BCNU 1 hour after O^6-benzylguanine: significantly increased survival as compared to that of control, BCNU alone, O^6 -benzylguanine alone and O^6 -benzylguanine followed 36 hours later by BCNU
[3]; with BCNU
  therapeutic effect, higher doses of O^6-benzylguanine: greater therapeutic effect
[3]
  therapeutic effect of combination regimens vs equitoxic dose of BCNU alone: None of the combination regimens, however, were as effective as an equitoxic dose of BCNU alone
  therapeutic effect, O^6-benzylguanine 1 hour prior to BCNU: significantly greater effect than was seen with BCNU treatment alone
Prostate tumors; prostate cancer
  anti-tumor effect of BCNU after O^6-benzylguanine pretreatment: enhanced
Prostate tumors; rats bearing prostate tumors, O^6-benzylguanine one hour prior to BCNU, or BCNU alone at equal dose
  regression in tumor growth: regression in tumor growth
[4]
  sensitivity to chloroethylating and methylating anti-tumor drugs: increase the sensitivity
[5]
  sensitivity to chloroethylating and methylating anti-tumor drugs: increase the sensitivity
Melanoma cells (M19-mel)
  sensitivity to chloroethylating and methylating anti-tumor drugs: increase the sensitivity
Tumor cells
  enhancement in the cytotoxic response to alkylating agents: enhancement in the cytotoxic response to chemotherapeutic alkylating agents
[6]
  toxicity of BCNU after O^6-benzylguanine pretreatment: increased the toxicity of BCNU significantly
[7]; with BCNU
  therapeutic effect, lower pretreatment dose of O^6-benzylguanine: significantly lesser therapeutic effect
[7]
  therapeutic effect, BCNU 1 hour after O^6-benzylguanine: significantly greater effect than was seen with either the same or a higher dose of BCNU alone
  therapeutic effect, BCNU delayed until 36 hours after O^6-benzylguanine: greatly reduced effect that was not significantly different than that produced by control or BCNU alone
Human tumor xenografts
  therapeutic effectiveness of chloroethylating nitrosoureas after pretreatment: dramatic increase in the therapeutic effectiveness of chloroethylating nitrosoureas in vivo
